The results in this text go back to PubChem BioAssay (NCI).

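Step 1: Grow cells in 96-well plates. Step 2: Expose to compound for 48 hours at 5 concentrations. Step 3: Interpolate endpoints linearly; if unreached, use highest concentration. TGI is the concentration that stops growth completely.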

What all share (test): NCI-60 cell line screen, 48 h
In assay [1] the test system is HS 578T breast.
For assay [2], the system named is HCC-2998 colon.
Assay [3] deals with MALME-3M melanoma.
In assay [4] the test system is HL-60(TB) leukemia.
Assay [5] relates to T-47D breast.
The test system of assay [6] is HOP-62 NSCLC.
In assay [7] the test system is RPMI-8226 leukemia.
Assay [8] concerns OVCAR-5 ovarian.
The test system of assay [9] is K-562 leukemia.

With `CC1C(=O)N(c2ccccc2)NC12CCCc1ccccc12` (stereo unspecified), the TGI in assay [1], in assay [2], in assay [3], in assay [4], in assay [5] and in assay [6] was more than 100 µM each time. For the same compound, the TGI in assay [7], in assay [8] and in assay [9] was more than 100 µM each time.

For the compound `Cc1cc(-c2nc3cc(F)ccc3s2)ccc1NC(=O)[C@@H](N)CCCCN`, the TGI worked out at 24.7 µM in assay [1]; 6.85 µM in assay [2]; 33.2 µM in assay [3]; 6.29 µM in assay [4]; 17.3 µM in assay [5]; 11 µM in [6]. Moreover, the TGI in assay [7] is 4.88 µM; in assay [8], 17 µM; in assay [9] it was 5.21 µM.

Consider `CC(=O)OCC1OC(SC2=N/C(=C\c3ccc(Br)s3)C(=O)N2CN2CCOCC2)C(OC(C)=O)C(OC(C)=O)C1OC(C)=O` (stereo unspecified), for which the TGI was more than 100 µM in assay [1]; 38.7 µM in assay [2]; 35.6 µM in [3]; 12.8 µM in assay [4]; 91.8 µM in [5]; 56.6 µM in assay [6]. Moreover, the TGI in [7] is 27 µM; in assay [8], 72.1 µM; in assay [9] it was 45.7 µM.

With `OCC(O)C(O)C(O)C(O)c1nc2ccc(Cl)cc2[nH]1` (stereo unspecified), the TGI in assay [1] is more than 100 µM; in assay [2], more than 100 µM; in assay [3], more than 100 µM; in assay [4] it was 4.89 µM; in assay [5], more than 100 µM; in [6], more than 100 µM. Moreover, the TGI in assay [7], in [8] and in [9] was more than 100 µM in each case.

On to `C[C@H](NC(=O)C(Cc1ccccc1)(Cc1ccc(O)cn1)NC(=O)c1ccccc1)c1ccccc1` (stereo partly specified), for which the TGI in assay [1] came to 41.1 µM; in [2], 30.8 µM; in assay [3], 37.6 µM; in assay [4] it was 64.6 µM; in [5] it was 69.1 µM; in assay [6], 33.8 µM. Besides, the TGI is more than 100 µM in assay [7], 37.4 µM in assay [8] and more than 100 µM in assay [9].

For `CC(C)=NN/C(=N\S(=O)(=O)c1ccc(Oc2cccc(Cl)c2C#N)cc1)Nc1ccc(Cl)cc1`, the TGI in assay [1], in assay [3], in [4], in assay [5], in assay [6] and in assay [7] was more than 100 µM throughout. Further, the TGI in assay [8] and in [9] was more than 100 µM in each case.

Turning to `CC(NC(=O)C(NC(=O)CNC(=O)OC(C)(C)C)C(C)C)C(=O)Oc1c(Cl)c(Cl)c(Cl)c(Cl)c1Cl` (stereo unspecified), the TGI in [1] was 50.1 µM; in assay [2], 39.4 µM; in assay [3], 49.4 µM; in assay [4], more than 100 µM; in [5], 62.4 µM; in [6], 35.7 µM. Further, the TGI is more than 100 µM in assay [7], 31.6 µM in assay [8] and more than 100 µM in [9].

`COc1ccc(CC(N)c2ccc(OC)cc2)cc1` (stereo unspecified): the TGI in assay [1] was more than 100 µM; in assay [2] it was 35 µM; in assay [3] it was more than 100 µM; in assay [4] it was more than 100 µM; in assay [5], more than 100 µM; in assay [6], more than 100 µM. In addition, the figures for the TGI in [7], in assay [8] and in [9] were 83 µM, more than 100 µM and more than 100 µM, respectively.

Regarding `O=C(NCCCCCCCCCCCCNC(=O)Nc1cccc2ccccc12)Nc1cccc2ccccc12`, the TGI in assay [1] was 52.4 µM; in assay [2], 27.8 µM; in assay [3], 34.4 µM; in [4] it was 37.3 µM; in assay [5], 36.7 µM; in assay [6], 20.1 µM. Further, the values for the TGI in assay [7], in [8] and in [9] were 37.1 µM, 79.6 µM and 50.5 µM, respectively.

Consider `N#CC1(C#N)NC(c2cccs2)C(C#N)(C#N)NC1c1cccs1` (stereo unspecified), for which the TGI is more than 100 µM in assay [1]; 93.3 µM in assay [2]; more than 100 µM in assay [3]; 41.3 µM in assay [4]; more than 100 µM in assay [5]; more than 100 µM in [6]. The TGI in [7] stood at 73.1 µM; in [8], 92.6 µM; in assay [9] it was 56.3 µM.

On to `Cc1ccc2c(=O)cc(-c3ccc(Cl)s3)[nH]c2n1`, for which the TGI was more than 22.9 µM in [1]; 25.9 µM in [2]; more than 100 µM in assay [3]; 0.989 µM in assay [4]; more than 100 µM in assay [5]; more than 100 µM in assay [6]. Further, the TGI is 4.08 µM in assay [7], more than 100 µM in [8] and more than 100 µM in assay [9].

Take `CCCCOC(=O)C(NC(C(=O)OCCCC)c1cc(C(C)(C)C)c(O)c(C(C)(C)C)c1)c1cc(C(C)(C)C)c(O)c(C(C)(C)C)c1` (stereo unspecified): the TGI in assay [1], in assay [3], in assay [4], in assay [5], in assay [6] and in [7] was more than 100 µM throughout. Moreover, the TGI in [8] and in assay [9] was more than 100 µM in each case.

With `CCOC(=O)c1nc2ccc(C(F)(F)F)cc2nc1Oc1cc(OC)c(OC)c(OC)c1`, the TGI in assay [1] is 73.5 µM; in assay [3], more than 100 µM; in assay [4], more than 100 µM; in assay [5] it was more than 100 µM; in assay [6], more than 100 µM; in [7] it was more than 100 µM. Further, the TGI in [8] and in [9] was more than 100 µM each time.

On to `CC(C)CNc1nc2ncnc(N)c2[nH]1`, for which the TGI in assay [1], in assay [2], in assay [3], in assay [4], in assay [5] and in [6] was more than 100 µM in each case. Moreover, the TGI in assay [7], in assay [8] and in assay [9] was more than 100 µM in each case.

For the compound `CCN(CC)N1C(=O)[N+](CC)(CC)N=C1[O-]`, the TGI in assay [1], in assay [2], in assay [3], in [4], in [5] and in assay [6] was more than 100 µM in each case. Further, the TGI in [7] and in assay [8] was more than 100 µM in each case.
